The record followed here is US4743687A, “Pyridazo (1,2-a) (1,2) diazepine derivatives” (Hoffmann-La Roche Inc., priority 1985, dated 1988).

For orientation: IC50 means the concentration that inhibits the measured activity by half. The low end stands for greater potency, the high end for weaker potency.

Each structure is given as a SMILES string.

The target of this test is T1, angiotensin converting enzyme (Oryctolagus cuniculus, UniProt P12822).
T1 sequence (P12822 34-1310): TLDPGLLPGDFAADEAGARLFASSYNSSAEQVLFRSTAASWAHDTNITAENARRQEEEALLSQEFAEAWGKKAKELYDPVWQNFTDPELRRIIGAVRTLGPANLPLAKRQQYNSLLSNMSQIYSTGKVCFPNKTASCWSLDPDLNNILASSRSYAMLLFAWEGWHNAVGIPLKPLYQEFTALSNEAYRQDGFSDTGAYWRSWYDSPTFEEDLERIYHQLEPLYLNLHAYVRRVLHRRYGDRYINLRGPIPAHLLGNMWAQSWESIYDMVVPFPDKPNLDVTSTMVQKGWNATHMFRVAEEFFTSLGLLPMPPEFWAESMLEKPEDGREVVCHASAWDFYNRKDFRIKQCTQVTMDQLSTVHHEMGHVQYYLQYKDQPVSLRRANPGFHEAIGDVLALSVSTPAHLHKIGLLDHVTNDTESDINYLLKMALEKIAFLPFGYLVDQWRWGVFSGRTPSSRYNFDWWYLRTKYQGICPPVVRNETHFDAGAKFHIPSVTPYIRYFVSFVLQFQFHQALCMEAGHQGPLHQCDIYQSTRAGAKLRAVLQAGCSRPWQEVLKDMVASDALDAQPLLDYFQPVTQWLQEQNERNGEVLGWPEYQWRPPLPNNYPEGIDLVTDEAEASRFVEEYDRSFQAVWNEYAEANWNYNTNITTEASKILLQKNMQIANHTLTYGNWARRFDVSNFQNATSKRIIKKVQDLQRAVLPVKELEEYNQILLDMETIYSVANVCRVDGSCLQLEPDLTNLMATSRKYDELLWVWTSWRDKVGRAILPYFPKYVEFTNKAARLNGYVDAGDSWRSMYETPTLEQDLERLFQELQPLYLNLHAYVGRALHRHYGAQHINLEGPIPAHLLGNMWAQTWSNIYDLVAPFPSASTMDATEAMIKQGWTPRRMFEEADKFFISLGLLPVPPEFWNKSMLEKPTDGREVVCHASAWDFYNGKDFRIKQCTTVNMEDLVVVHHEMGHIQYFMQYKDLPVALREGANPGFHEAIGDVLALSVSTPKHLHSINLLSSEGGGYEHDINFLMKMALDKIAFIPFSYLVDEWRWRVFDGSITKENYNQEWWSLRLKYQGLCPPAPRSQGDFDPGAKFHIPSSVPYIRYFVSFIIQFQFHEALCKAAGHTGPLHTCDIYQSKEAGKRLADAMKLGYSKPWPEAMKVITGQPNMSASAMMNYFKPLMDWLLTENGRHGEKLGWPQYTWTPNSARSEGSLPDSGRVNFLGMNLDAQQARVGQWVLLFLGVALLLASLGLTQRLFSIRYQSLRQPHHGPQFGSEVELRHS
Briefly: in vitro inhibition of angiotensin converting enzyme (hippuryl-histidyl-leucine cleavage). The test is classed as biochemical. As to conditions: substrate hippuryl-histidylleucine 2 mM, pH 8.3, 24 minutes at 37° C.; esters cleaved by hog liver esterase before test. As for the experimental part:
The activity of the present compounds in inhibiting angiotensin converting enzyme in vitro can be determined by the following test.
The method used is based on the method of Cushman and Cheung (Biochem. Pharmacol., 20. 1637-1648) incorporating the modifications introduced by Hayakari et al (Anal. Biochem., 84. 361-369). The substrate (hippuryl-histidylleucine, 2 mM) is incubated with angiotensin converting enzyme in the presence or absence of various concentrations of test substance in potassium phosphate buffer (pH 8.3; 100 mM) containing sodium chloride (300 mM) for 24 minutes at 37° C. (total value 500 μl). (if the test substance is an ester, it is appropriate to cleave it by means of hog liver esterase before carrying out the test). The reaction is terminated by the addition of 3 ml of potassium phosphate buffer (pH 8.3; 200 mM) at 0° C. 2,4,6-Trichloro-s-triazine (3%) in 1.5 ml of dioxan is added and the mixture is agitated until the yellow chromophore has developed fully. The samples are then centrifuged to remove any precipitate which has formed. The yellow chromophore formed by the reaction of the 2,4,6-trichloro-s-triazine with free hippuric acid is measured spectrophotometrically at 382 nm. […]

On to `O=C(O)[C@@H]1CCCN2CCC[C@H](CP(=O)(O)O)C(=O)N12` [Compound A, Octahydro9(S)--phosphonomethyl10-oxo-6H--pyridazo[1,2a][1,2]diazepine1(S)-carboxylic acid], for which inhibition was half-maximal at 9.6 nM (IC50).
